From patent publication US20230122249A1, “1H-PYRAZOLO[4,3-d]PYRIMIDINE COMPOUNDS AS TOLL-LIKE RECEPTOR 7 (TLR7) AGONISTS” (BRISTOL-MYERS SQUIBB COMPANY, priority 2020, published 2023)

What was measured:
human TLR7 = biological target: T1, human TLR7 (Homo sapiens, UniProt Q9NYK1); assay: Human TLR7 agonist activity (hTLR7 reporter) assay in HEK-Blue TLR7 cells, SEAP readout; type: cell-based; details: 18 h treatment, average where assay repeated
T1 construct: host or cells: HEK-Blue TLR7 cells (engineered human embryonic kidney cells)
T1 sequence (Q9NYK1 27-1049): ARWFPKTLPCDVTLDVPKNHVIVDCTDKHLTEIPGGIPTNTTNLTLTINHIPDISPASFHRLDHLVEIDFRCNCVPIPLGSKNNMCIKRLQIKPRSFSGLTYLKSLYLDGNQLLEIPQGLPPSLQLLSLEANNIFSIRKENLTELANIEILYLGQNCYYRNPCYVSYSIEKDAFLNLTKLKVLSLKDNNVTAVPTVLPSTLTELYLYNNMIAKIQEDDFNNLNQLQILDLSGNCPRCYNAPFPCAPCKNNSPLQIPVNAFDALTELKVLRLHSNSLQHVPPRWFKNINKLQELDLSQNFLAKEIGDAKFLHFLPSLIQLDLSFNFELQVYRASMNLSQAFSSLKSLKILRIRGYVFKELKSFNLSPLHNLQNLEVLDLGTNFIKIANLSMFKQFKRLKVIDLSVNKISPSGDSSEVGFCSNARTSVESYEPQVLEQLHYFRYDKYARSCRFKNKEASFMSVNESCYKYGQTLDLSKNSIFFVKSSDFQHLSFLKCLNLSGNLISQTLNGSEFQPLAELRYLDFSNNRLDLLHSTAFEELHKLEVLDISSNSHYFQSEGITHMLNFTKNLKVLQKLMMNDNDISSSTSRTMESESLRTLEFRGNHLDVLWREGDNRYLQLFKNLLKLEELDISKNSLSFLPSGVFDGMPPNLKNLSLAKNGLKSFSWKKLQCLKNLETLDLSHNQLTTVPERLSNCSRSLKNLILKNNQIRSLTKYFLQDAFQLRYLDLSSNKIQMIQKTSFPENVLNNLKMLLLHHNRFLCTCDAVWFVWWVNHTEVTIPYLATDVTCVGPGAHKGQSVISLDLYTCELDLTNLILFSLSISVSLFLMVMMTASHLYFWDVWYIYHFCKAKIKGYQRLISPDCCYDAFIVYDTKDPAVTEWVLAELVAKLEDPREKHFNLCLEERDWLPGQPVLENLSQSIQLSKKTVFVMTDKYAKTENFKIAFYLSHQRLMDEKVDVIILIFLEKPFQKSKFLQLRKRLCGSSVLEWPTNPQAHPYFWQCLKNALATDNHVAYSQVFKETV
Procedure, shortened: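 HEK-Blue TLR7 cells (15,000/well) treated with compound for 18 h at 37 °C, 5% CO2. Secreted SEAP measured with Quanti-Blue, 30 min, OD 620 nm. EC50 taken as concentration giving half-maximal response between baseline and maximum.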

[1] = tested on: CD69 in human whole blood; assay: Induction of CD69 in human whole blood (hWB); type: cell-based; details: heparinized human whole blood, 17 h, CD69 surface staining; 100% set to 1 uM resiquimod; average where assay repeated
Procedure, shortened: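 hWB stimulated with compound at 1 uM final (1 mM stock), 37° C o/n (17 hrs). Surface CD69-PE staining with CD14/CD19 gating, fix/lysis, then flow cytometry read. IC50 curves with 100% set to 1 uM resiquimod.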

| SMILES | EC50 (human TLR7) [nM] | EC50 [1] [nM] |
| --- | --- | --- |
| Nc1nc(NCC2CC3(CC3)C2)c2c(cnn2Cc2ccc(CN3C[C@H]4CNC[C@H]4C3)cc2OC(F)F)n1 [Compound 243] | 283 | 193 |
| COc1cc(C(=O)N2CC3(C2)CN(C(C)C)C3)ccc1Cn1ncc2nc(N)nc(NCc3noc(C)n3)c21 [Compound 248] | 73 | 25.4 |
| COc1cc(C(=O)N2C[C@H]3CNC[C@H]3C2)ccc1Cn1ncc2nc(N)nc(NCC3CC4(CC4)C3)c21 [Compound 175] | 96.5 | 48.8 |
| COc1cc(CN2CC3(CC(O)C3)C2)ccc1Cn1ncc2nc(N)nc(NCC3CC4(CCC4)C3)c21 (centres unmarked) [Compound 158] | 38 | 39.1 |

More lines, in order of falling EC50 (human TLR7), values ahead:

| EC50 (human TLR7) [nM] | EC50 [1] [nM] | SMILES |
| --- | --- | --- |
| 589 | 958 | COc1cc(C(=O)N2CCN(CC(F)(F)F)CC2)ccc1Cn1ncc2nc(N)nc(NCC3CC4(CC4)C3)c21 [Compound 237] |
| 115 | 10.8 | COc1cc(C(=O)N2C[C@H]3CN(C)C[C@H]3C2)ccc1Cn1nc(C)c2nc(N)nc(NCC3CC4(CC4)C3)c21 [Compound 217] |
| 52.5 | 24.9 | CCCCNc1nc(N)nc2cnn(Cc3ccc(CN4CC5(C4)CN(C(=O)C4(C)CC4)C5)cc3OC)c12 [Compound 111] |
